Patent US8653089B2, “Heterocyclic compounds and methods of use” (F. Hoffmann-La Roche AG, priority 2011, dated 2014)
pIC50: −log10 of the molar value.

The compounds below were run on production of CD69 by B lymphocytes in human whole blood activated by crosslinking surface IgM (assay: CD69 human whole blood assay (Example 903), FACS). Settings: B lymphocytes activated with goat F(ab')2 anti-human IgM, read-out: CD69 Hu Blood FACS IC50.
Assay type: cell-based
Excerpt: There is good evidence that B-cells play a key role in the pathogenesis of autoimmune and/or inflammatory disease. Protein-based therapeutics that deplete B cells such as Rituxan are effective against autoantibody-driven inflammatory diseases such as rheumatoid arthritis (Rastetter et al. (2004) Annu Rev Med 55:477). CD69 is the early activation marker in leukocytes including T cells, thymocytes, B cells, NK cells, neutrophils, and eosinophils. The CD69 human whole blood assay (Example 903) determines the ability of compounds to inhibit the production of CD69 by B lymphocytes in human whole blood activated by crosslinking surface IgM with goat F(ab′)2 anti-human IgM.

| pIC50 | Compound |
| --- | --- |
| 7.69 | CC(Nc1ncnc2[nH]cnc12)c1nc2ccc(F)cc2n1-c1ccccn1 (stereo not drawn) [Example 210, [1-(6-Fluoro-1-pyridin-2-yl-1H-benzoimidazol-2-yl)-ethyl]-(9H-purin-6-yl)-amine] |
| 7.17 | CC(Nc1ncnc2[nH]cnc12)c1nc2ccc(F)cc2n1-c1ccccn1 (stereo not drawn) [Example 182, [1-(6-Fluoro-1-pyridin-2-yl-1H-benzoimidazol-2-yl)-ethyl]-(9H-purin-6-yl)-amine] |
| 7.20 | CC(Nc1ncnc2[nH]cnc12)c1nc2ccc(F)cc2n1-c1cccnc1 (stereo not drawn) [Example 176, [1-(6-Fluoro-1-pyridin-3-yl-1H-benzoimidazol-2-yl)-ethyl]-(9H-purin-6-yl)-amine] |

Same assay, conditions: Homo sapiens, Lymphocyte, B lymphocytes activated with goat F(ab')2 anti-human IgM, read-out: CD69 Hu Blood FACS IC50

| pIC50 | Compound |
| --- | --- |
| 6.92 | OCC[C@H](Nc1ncnc2[nH]cnc12)c1nc2ccc(F)cc2n1-c1ccccc1 [Example 187, (S)-3-(6-Fluoro-1-phenyl-1H-benzoimidazol-2-yl)-3-(9H-purin-6-ylamino)-propan-1-ol] |
| 6.69 | CC(Nc1ncnc2[nH]cnc12)c1nc2ccc(F)cc2n1-c1ccc(F)cn1 (stereo not drawn) [Example 208, {1-[6-Fluoro-1-(5-fluoro-pyridin-2-yl)-1H-benzoimidazol-2-yl]-ethyl}-(9H-purin-6-yl)-amine] |
| 7.58 | Cc1c(F)ccc2nc([C@H](C)Nc3ncnc4[nH]cnc34)n(-c3ccccc3)c12 [Example 183, [(S)-1-(6-Fluoro-7-methyl-1-phenyl-1H-benzoimidazol-2-yl)-ethyl]-(9H-purin-6-yl)-amine] |
| 6.96 | C[C@H](Nc1ncnc2[nH]cnc12)c1nc2ccc(F)c(C#N)c2n1-c1cccnc1 [Example 281, 5-Fluoro-2-[(S)-1-(9H-purin-6-ylamino)-ethyl]-3-pyridin-3-yl-3H-benzoimidazole-4-carbonitrile] |
| 7.59 | C[C@H](Nc1ncnc2[nH]cnc12)c1nc2ccc(F)cc2n1-c1cncc(F)c1 [Example 260, {(S)-1-[6-Fluoro-1-(5-fluoro-pyridin-3-yl)-1H-benzoimidazol-2-yl]-ethyl}-(9H-purin-6-yl)-amine] |
| 8.54 | C[C@H](Nc1ncnc(N)c1C#N)c1nc2ccc(F)c(C3CC3)c2n1-c1cccnc1 [Example 306, 4-Amino-6-[(S)-1-(7-cyclopropyl-6-fluoro-1-pyridin-3-yl-1H-benzoimidazol-2-yl)-ethylamino]-pyrimidine-5-carbonitrile] |
| 7.32 | Cc1c(F)ccc2nc([C@H](C)Nc3ncnc(N)c3C#N)n(-c3ccccn3)c12 [Example 289, 4-Amino-6-[(S)-1-(6-fluoro-7-methyl-1-pyridin-2-yl-1H-benzoimidazol-2-yl)-ethylamino]-pyrimidine-5-carbonitrile] |
| 7.36 | CC(Nc1ncnc2[nH]cnc12)c1nc2ccc(F)c(C#N)c2n1-c1ccccc1 (stereo not drawn) [Example 217, 5-Fluoro-3-phenyl-2-[1-(9H-purin-6-ylamino)-ethyl]-3H-benzoimidazole-4-carbonitrile] |
| 7.73 | C[C@H](Nc1ncnn2ccnc12)c1nc2ccc(F)cc2n1-c1ccccc1 [Example 321, [(S)-1-(6-Fluoro-1-phenyl-1H-benzoimidazol-2-yl)-ethyl]-imidazo[2,1-f][1,2,4]triazin-4-yl-amine] |
| 6.10 | C[C@H](Nc1ncnc(N)c1C#N)c1nc2ccc(F)c(-c3ccccn3)c2n1C1CC1 [Example 442, 4-Amino-6-[(S)-1-(1-cyclopropyl-6-fluoro-7-pyridin-2-yl-1H-benzoimidazol-2-yl)ethylamino]-pyrimidine-5-carbonitrile] |
| 6.83 | COC[C@H](Nc1ncnc2[nH]cnc12)c1nc2ccc(F)c(C)c2n1-c1ccccc1 [Example 188, [(R)-1-(6-Fluoro-7-methyl-1-phenyl-1H-benzoimidazol-2-yl)-2-methoxy-ethyl]-(9H-purin-6-yl)-amine] |
| 6.84 | CC(Nc1ncnc2[nH]cnc12)c1nc2ccc(F)c(Cl)c2n1-c1ccccc1 (stereo not drawn) [Example 179, [1-(7-Chloro-6-fluoro-1-phenyl-1H-benzoimidazol-2-yl)-ethyl]-(9H-purin-6-yl)-amine] |
| 7.09 | C[C@H](Nc1ncnc2[nH]cnc12)c1nc2ccc(F)c(Br)c2n1-c1ccccc1 [Example 178, [(S)-1-(7-Bromo-6-fluoro-1-phenyl-1H-benzoimidazol-2-yl)-ethyl]-(9H-purin-6-yl)-amine] |
| 6.52 | C[C@H](Nc1ncnc2[nH]cnc12)c1nc2ccc(Cl)cc2n1-c1ccccc1 [Example 173, [(S)-1-(6-Chloro-1-phenyl-1H-benzoimidazol-2-yl)-ethyl]-(9H-Aurin-6-yl)-amine] |
| 6.39 | CC[C@H](Nc1ncnc2[nH]cnc12)c1nc2ccc(F)cc2n1-c1ccccn1 [Example 247, [(S)-1-(6-Fluoro-1-pyridin-2-yl-1H-benzoimidazol-2-yl)-propyl]-(9H-purin-6-yl)-amine] |
| 7.49 | C[C@H](Nc1ncnc(N)c1C#N)c1nc2ccc(F)c3c2n1CCCC3 [Example 406, 4-Amino-6-[(S)-1-(5-fluoro-6,7,8,9-tetrahydro-2,9a-diazabenzo[cd]azulen-1-yl)ethylamino]pyrimidine-5-carbonitrile] |
| 6.97 | COCC(Nc1ncnc2nc[nH]c12)c1nc2ccc(F)cc2n1-c1ccccc1 (stereo not drawn) [Example 171, [1-(6-Fluoro-1-phenyl-1H-benzoimidazol-2-yl)-2-methoxy-ethyl]-(7H-purin-6-yl)-amine] |

| pIC50 | Compound |
| --- | --- |
| 7.08 | CC[C@H](Nc1ncnc(N)c1C#N)c1nc2ccc(F)cc2n1-c1cncc(F)c1 [Example 350, 4-Amino-6-{(S)-1-[6-fluoro-1-(5-fluoro-pyridin-3-yl)-1H-benzoimidazol-2-yl]-propylamino}-pyrimidine-5-carbonitrile] |
| 6.76 | OCC[C@H](Nc1ncnc2[nH]cnc12)c1nc2ccc(F)cc2n1-c1ccccn1 [Example 304, (S)-3-(6-Fluoro-1-pyridin-2-yl-1H-benzoimidazol-2-yl)-3-(9H-purin-6-ylamino)-propan-1-ol] |
| 7.17 | C[C@H](Nc1ncnc2[nH]cnc12)c1nc2ccc(F)cc2n1[C@@H]1CCCN(CCO)C1 [Example 256, 2-((R)-3-{6-Fluoro-2-[(S)-1-(9H-purin-6-ylamino)-ethyl]-benzoimidazol-1-yl}-piperidin-1-yl)-ethanol] |
| 6.05 | C[C@H](Nc1ncnc(N)c1C#N)c1nc2ccc(F)c(-c3ccccn3)c2n1C [Example 411, 4-amino-6-[[(1S)-1-[6-fluoro-1-methyl-7-(2-pyridyl)benzimidazol-2-yl]ethyl]amino]pyrimidine-5-carbonitrile] |
| 7.37 | CCC(Nc1ncnc2[nH]cnc12)c1nc2ccc(F)cc2n1-c1cccnc1 (stereo not drawn) [Example 205, [1-(6-Fluoro-1-pyridin-3-yl-1H-benzoimidazol-2-yl)-propyl]-(9H-purin-6-yl)-amine] |
| 7.96 | CC(Nc1ncnc2[nH]cnc12)c1nc2ccc(F)c(C3CC3)c2n1-c1ccccc1 (stereo not drawn) [Example 198, [1-(7-Cyclopropyl-6-fluoro-1-phenyl-1H-benzoimidazol-2-yl)-ethyl]-(9H-purin-6-yl)-amine] |
| 7.28 | C[C@H](Nc1ncnc2[nH]cnc12)c1nc2ccc(F)cc2n1-c1cccc(F)c1 [Example 185, {(S)-1-[6-Fluoro-1-(3-fluoro-phenyl)-1H-benzoimidazol-2-yl]-ethyl}-(9H-purin-6-yl)-amine] |
| 6.60 | C[C@H](Nc1ncnc2[nH]cnc12)c1nc2ccc(F)cc2n1-c1ccc2c(c1)OCO2 [Example 320, [(S)-1-(l-Benzo[1,3]dioxol-5-yl-6-fluoro-1H-benzoimidazol-2-yl)-ethyl]-(9H-purin-6-yl)-amine] |
| 7.50 | COC(=O)c1c(F)ccc2nc(C(C)Nc3ncnc4[nH]cnc34)n(-c3ccccc3)c12 (stereo not drawn) [Example 197, 5-Fluoro-3-phenyl-2-[1-(9H-purin-6-ylamino)-ethyl]-3H-benzoimidazole-4-carboxylic acid methyl ester] |
| 6.29 | N#Cc1c(N)ncnc1NCc1nc2ccc(F)cc2n1-c1ccccc1 [Example 371, 4-amino-6-((6-fluoro-1-phenyl-1H-benzo[d]imidazol-2-yl)methylamino)pyrimidine-5-carbonitrile] |
| 6.72 | CC(Nc1ncnc(N)c1C#N)c1nc2cccnc2n1-c1ccccc1 (stereo not drawn) [Example 302, 4-Amino-6-[1-(3-phenyl-3H-imidazo[4,5-b]pyridin-2-yl)-ethylamino]-pyrimidine-5-carbonitrile] |
| 7.78 | C[C@H](Nc1ncnc(N)c1C#N)c1nc2ccc(F)cc2n1-c1ccccc1 [Example 246, 4-Amino-6-[(S)-1-(6-fluoro-1-phenyl-1H-benzoimidazol-2-yl)-ethylamino]-pyrimidine-5-carbonitrile] |
| 7.36 | C[C@H](Nc1ncnc2[nH]cnc12)c1nc2ccc(F)cc2n1-c1cnn(C)c1 [Example 419, N-[(1S)-1-[6-fluoro-1-(1-methylpyrazol-4-yl)benzimidazol-2-yl]ethyl]-9H-purin-6-amine] |
| 7.41 | COC[C@H](Nc1ncnc(N)c1C#N)c1nc2ccc(F)cc2n1-c1ccccn1 [Example 271, 4-Amino-6-[(R)-1-(6-fluoro-1-pyridin-2-yl-1H-benzoimidazol-2-yl)-2-methoxy-ethylamino]-pyrimidine-5-carbonitrile] |
| 7.10 | CC[C@H](Nc1ncnc2[nH]cnc12)c1nc2ccc(F)c(C#N)c2n1-c1ccccc1 [Example 244, 5-Fluoro-3-phenyl-2-[(S)-1-(9H-purin-6-ylamino)-propyl]-3H-benzoimidazole-4-carbonitrile] |
| 7.92 | C[C@H](Nc1ncnc2[nH]cnc12)c1nc2ccc(F)c(C(=O)N3CCOCC3)c2n1C1CC1 [Example 389, [3-cyclopropyl-5-fluoro-2-[(1S)-1-(9H-purin-6-ylamino)ethyl]benzimidazol-4-yl]-morpholino-methanone] |
